Laboratory results from ChEMBL document CHEMBL1201862, “PubChem BioAssay data set” (2004).
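Test compounds were applied to cells in 96-well plates for 48 hours at 5 doses. The concentration for 50% growth inhibition is given as GI50.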 Calls of active or inactive are those of the source. Cut-off read from the data, not from the text of the source: active = GI50 up to about 1.1 µM and inactive = higher.

Experiments:
Assay in all cases: NCI anticancer screen, dose series, 48 h
DU-145 = tested on: DU-145
HCT-116 = tested on: HCT-116
HOP-92 = tested on: HOP-92
NCI-H460 = tested on: NCI-H460
SF-268 = tested on: SF-268
IGROV-1 = tested on: IGROV-1
SW-620 = tested on: SW-620
SNB-75 = tested on: SNB-75
MDA-MB-231 = tested on: MDA-MB-231
OVCAR-3 = tested on: OVCAR-3
SK-MEL-5 = tested on: SK-MEL-5
SF-295 = tested on: SF-295
MOLT-4 = tested on: MOLT-4
HL-60 = tested on: HL-60
U-251 = tested on: U-251
OVCAR-4 = tested on: OVCAR-4
HCC 2998 = tested on: HCC 2998
K562 = tested on: K562
RPMI-8226 = tested on: RPMI-8226

SMILES	GI50 (DU-145)	GI50 (HCT-116)	GI50 (HOP-92)	GI50 (NCI-H460)	GI50 (SF-268)	GI50 (IGROV-1)	GI50 (SW-620)	GI50 (SNB-75)	GI50 (MDA-MB-231)	GI50 (OVCAR-3)	GI50 (SK-MEL-5)	GI50 (SF-295)	GI50 (MOLT-4)	GI50 (HL-60)	GI50 (U-251)	GI50 (OVCAR-4)	GI50 (HCC 2998)	GI50 (K562)	GI50 (RPMI-8226)
N=C(N)N/N=C/c1c(-c2ccc(Cl)cc2)nc2sc(Cl)cn12	1.95 µM (inactive)	0.43 µM (active)	1.69 µM (inactive)	1.69 µM (inactive)	1.7 µM (inactive)	0.755 µM (active)	1.09 µM (active)	1.41 µM (inactive)	1.82 µM (inactive)	1.55 µM (inactive)	1.62 µM (inactive)	1.79 µM (inactive)	0.504 µM (active)	0.201 µM (active)	0.658 µM (active)	1.02 µM (active)			
COC(=O)c1ccccc1C1CN=NC12Cc1cc(C)c(C)cc1C2=O (stereo not given)	> 100 µM (inactive)	33.4 µM (inactive)	28 µM (inactive)	44.1 µM (inactive)	28.9 µM (inactive)	55.2 µM (inactive)	51.6 µM (inactive)	29.9 µM (inactive)	27.2 µM (inactive)	27.5 µM (inactive)	18.7 µM (inactive)	37.5 µM (inactive)	34.3 µM (inactive)	21.8 µM (inactive)	41.6 µM (inactive)	29.6 µM (inactive)	55.2 µM (inactive)	20 µM (inactive)	
Cc1ccc(C)c2c1CC(Cc1ccccc1C(=O)O)C2=O (stereo not given)	> 100 µM (inactive)	> 100 µM (inactive)	> 100 µM (inactive)	> 100 µM (inactive)	> 100 µM (inactive)	> 100 µM (inactive)	> 100 µM (inactive)	> 100 µM (inactive)	> 100 µM (inactive)	> 100 µM (inactive)	> 100 µM (inactive)	> 100 µM (inactive)	> 100 µM (inactive)	> 100 µM (inactive)	> 100 µM (inactive)	> 100 µM (inactive)	> 100 µM (inactive)	> 100 µM (inactive)	
OCC(O)COCn1cc(Cn2ncc3c(SCc4ccccc4)ncnc32)nn1 (stereo not given)	> 100 µM (inactive)	> 100 µM (inactive)	> 100 µM (inactive)		51.4 µM (inactive)	> 100 µM (inactive)	> 100 µM (inactive)		> 100 µM (inactive)	> 100 µM (inactive)	> 100 µM (inactive)	> 100 µM (inactive)	> 100 µM (inactive)	> 100 µM (inactive)	> 100 µM (inactive)	> 100 µM (inactive)	> 100 µM (inactive)	> 100 µM (inactive)	> 100 µM (inactive)
CCOC(=O)/C=C(\C(=O)OCC)n1cc(Cl)c(=O)n(CC(=O)OCC)c1=O	17 µM (inactive)	2.19 µM (inactive)	1.85 µM (inactive)	23.4 µM (inactive)	17.7 µM (inactive)	6.93 µM (inactive)	1.91 µM (inactive)	18.7 µM (inactive)	16 µM (inactive)	2.82 µM (inactive)	15.7 µM (inactive)	> 43.5 µM (inactive)	1.91 µM (inactive)	2.81 µM (inactive)	15.6 µM (inactive)	15.2 µM (inactive)	21.1 µM (inactive)		1.74 µM (inactive)
O=C1C[C@H](c2ccccc2)O[C@@H](c2ccccc2)C1	> 100 µM (inactive)	> 100 µM (inactive)	> 100 µM (inactive)	> 100 µM (inactive)	> 100 µM (inactive)	> 100 µM (inactive)	> 100 µM (inactive)	> 100 µM (inactive)	> 100 µM (inactive)	> 100 µM (inactive)	> 100 µM (inactive)	> 100 µM (inactive)	58.1 µM (inactive)		> 100 µM (inactive)	> 100 µM (inactive)	> 100 µM (inactive)	26.9 µM (inactive)	> 100 µM (inactive)
